“And” between values parts separate entries of the source, which are not always exact repeats. Equal entries are not always repeated.
What was measured:
Test in all cases: normalised viability (% of control), CellTiter-Blue; higher = more viable cells (about 100 = DMSO control)
Conditions in all cases: incubation time: 72 h
[1] = tested on: BT-474
Method in brief: (§1)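 The reported figure is normalised viability at a single listed concentration of the series. Breast cancer cell lines (20 µl suspension) went onto 384-well plates holding compound in 5 µl medium for 72 h. CellTiter-Blue (2.5 µl, 2 h, 37 °C) was read by fluorescence at 560/590 nm, and each plate was scaled to vehicle at 100 and a positive kill control at 0.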

[2] = tested on: BT-549
Method in brief: as §1

[3] = tested on: CAL-120
Method in brief: as §1

[4] = tested on: CAL-148
Method in brief: as §1

[5] = tested on: CAL-51
Method in brief: as §1

[6] = tested on: CAL-85-1
Method in brief: as §1

[7] = tested on: DU-4475
Method in brief: as §1

[8] = tested on: HCC1143
Method in brief: as §1

[9] = tested on: HCC1599
Method in brief: as §1

[10] = tested on: HCC1937
Method in brief: as §1

[11] = tested on: HDQ-P1
Method in brief: as §1

[12] = tested on: Hs578T
Method in brief: as §1

[13] = tested on: MDA-MB-231
Method in brief: as §1

[14] = tested on: MDA-MB-436
Method in brief: as §1

[15] = tested on: MDA-MB-453
Method in brief: as §1

[16] = tested on: MDA-MB-468
Method in brief: as §1

[17] = tested on: MFM-223
Method in brief: as §1

[18] = tested on: SK-BR-3
Method in brief: as §1

Nc1cccc2c1CN(C1CCC(=O)NC1=O)C2=O (centres undefined) [Lenalidomide]
normalised viability
Conditions	3 nM	10 nM	30 nM	100 nM	1000 nM	10000 nM
[1]	–	104% and 109%	–	–	117% and 107%	117% and 104%
[2]	–	94.5% and 88.9%	–	–	94.5% and 95.7%	89.3% and 101%
[3]	–	76% and 81.3%	–	–	80.2% and 81.1%	84.4% and 80.2%
[4]	78.6% and 91.8%	–	86% and 94.3%	86.9% and 89.8%	–	–
[5]	106% and 108%	–	99.4% and 99.6%	99.9% and 97.6%	–	–
[6]	82.3% and 93%	–	76.5% and 84.1%	86% and 96.7%	–	–
[7]	92.4% and 107%	–	89.8% and 80.5%	94.3% and 93.8%	–	–
[8]	–	76.4% and 66.6%	–	–	89.1% and 70%	72% and 72.4%
[9]	–	82.8% and 82.1%	–	–	91.9% and 86.6%	113% and 103%
[10]	–	92.3% and 85.5%	–	–	86.2% and 84.6%	78.2% and 87.7%
[11]	95.7% and 91.8%	–	106% and 83.8%	92.3% and 86.8%	–	–
[12]	–	107% and 99.5%	–	–	111% and 97.7%	100% and 95.5%
[13]	–	89% and 86.3%	–	–	79.1% and 103%	92.3% and 103%
[14]	–	98.1% and 99.7%	–	–	85% and 101%	107% and 112%
[15]	107% and 106%	–	89.3% and 94.9%	96.6% and 103%	–	–
[16]	–	103% and 111%	–	–	105% and 99.7%	93.5% and 106%
[17]	–	87.7% and 85.8%	–	–	90.2% and 96.7%	100% and 104%
[18]	–	104% and 93.7%	–	–	94.7% and 95.1%	86.8% and 101%

— the supplement of paper PMC4862054
